Data on three molecules can be found in US20050170391A1, “TAUT1 transporters expressed in blood brain barrier cells” (Xenoport, Inc., priority 2004, published 2005).

Several values for one entry are separate records, joined by “and”; a condition that tells them apart may be missing. Equal entries are not always repeated.

As usually defined, the IC50 is the midpoint of a concentration-inhibition curve. A lower IC50 goes with higher potency. In general, Km refers to the substrate concentration at which the rate is half of its maximum.

Series [1] has as its target T1, TAUT1 (Homo sapiens, UniProt P31641).
T1 sequence (P31641 1-620): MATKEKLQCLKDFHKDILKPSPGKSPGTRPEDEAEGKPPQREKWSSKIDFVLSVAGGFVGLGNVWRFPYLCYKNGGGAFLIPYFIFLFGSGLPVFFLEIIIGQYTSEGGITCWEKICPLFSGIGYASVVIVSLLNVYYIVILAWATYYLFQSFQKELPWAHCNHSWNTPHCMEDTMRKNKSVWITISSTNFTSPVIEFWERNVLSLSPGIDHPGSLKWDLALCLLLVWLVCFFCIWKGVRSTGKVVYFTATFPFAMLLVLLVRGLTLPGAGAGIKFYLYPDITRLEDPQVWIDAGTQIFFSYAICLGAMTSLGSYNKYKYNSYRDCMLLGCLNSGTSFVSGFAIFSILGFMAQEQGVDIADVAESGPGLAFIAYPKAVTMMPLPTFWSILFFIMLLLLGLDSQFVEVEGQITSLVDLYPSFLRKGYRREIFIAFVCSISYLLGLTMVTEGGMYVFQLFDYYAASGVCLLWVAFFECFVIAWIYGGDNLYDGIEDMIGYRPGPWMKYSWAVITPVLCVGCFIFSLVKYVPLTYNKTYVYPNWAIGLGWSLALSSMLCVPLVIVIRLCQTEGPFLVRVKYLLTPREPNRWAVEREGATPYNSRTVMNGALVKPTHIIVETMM
The series is described as follows: hTAUT1 competition uptake assay in HEK-TREx-TAUT1 cells. The class given is cell-based. Further details: expressed in transfected cells; host or cells: HEK-TREx cells (HEK-TREx-TAUT1 inducible line). On the procedure: A modified competition uptake assay was developed to determine the ability of a test compound(s) to inhibit the uptake of radiolabeled substrates into HEK-TREx-TAUT1 cells induced to over-express hTAUT. The results are stated as affinities (IC50).
The competition uptake assay were prepared as follows: Compounds were prepared for assay by diluting a 100 mM stock concentration (in DMSO) to the appropriate working concentration. Typically, seven-point dose response curves were prepared starting at a final assay concentration of 1 mM and carrying out three-fold dilutions. These dilutions were prepared by making a working “compound” plate that contained a 2× solution of the desired starting concentration of each test compound in duplicate in row A of a v-bottom microtiter plate. Six 3-fold serial dilutions (from row B to G) were made into the HBSS assay buffer (9.8 g/L Hank's Balance Salts (Sigma; H-1387), 2.6 g/L HEPES (10 mM) (Sigma; H-3375), 0.35 g/L NaHCO3 (4.2 mM) (Sigma; S-6297), pH to 7.4 with 5N NaOH) (with the appropriate amount of DMSO so that the DMSO concentration remains constant at all dilutions). The resulting “compound” plate contained serial dilutions of six compounds in duplicate.
^3H-GABA was diluted into HBSS buffer to a final concentration of 4,000 cpm/μl. Enough solution was prepared to allow addition of 25 μl/well (the final concentration was 100,000 cpm/well).
HEK-TREx-hTAUT cells, plated in 96-well plates and treated with tetracycline (or tet analog (e.g., doxycycline), were removed from the incubator. Growth media was removed from the cells, and the cells were washed twice in room temperature HBSS (100 μl/well/wash) using a 96-well plate washer (Bio Tek ELX405). Alternatively, cells were washed manually with equivalent volumes using a multichannel pipettor. Immediately before beginning the assay, the final 100 μl wash solution was removed from the cells by aspiration.
Using a 96-well pipettor, 25 μl from the “compound” plate was added to each well of the cell plate. The assay was started by adding 25 μl of the ^3H-GABA working solution. The plate was incubated at room temperature for 15 minutes. The assay was stopped by washing the cells four times with ice-cold HBSS buffer using a ELX 405 plate washer (100 μl buffer/well/wash) having an angled buffer dispenser.
Scintillation fluid (200 μl) (Optiphase Supermix (Perkin Elmer) was added to each well, and the plate was covered with a 96-well adhesive plate cover and placed on a shaker for 10 minutes. The plates were counted on a 96-well plate scintillation counter for 60 sec/well. The data were analyzed using a sigmoidal dose response curve-fitting program ((Prism, GraphPad, Inc, San Diego, Calif.; equation: one-site competition).
FIG. 7 depicts the results of a competition experiment using HEK-TREx-TAUT1 cells. ^3H-taurine was used as the substrate and unlabeled taurine was used as the competitor. The competition experiment was performed as described in Example 7. Non-specific uptake was determined by measuring the uptake into cells not induced to express the transporter (“no tet”). […] In control cells, uptake of labeled taurine remained at background levels and was largely unaffected by an excess of unlabeled taurine.
These four compounds, IAA, R,S-Baclofen, GPA, and GABA, were tested in both competition and direct uptake assays. One notable difference in the competition assay format compared to the literature is that ^3H-GABA was used, rather than ^3H-taurine, as the radiolabel. […] Therefore, to develop a competition assay that is as sensitive as possible, ^3H-GABA, a substrate with a much […] affinity, was used.

In series [2] the target is T1, TAUT1. Kind of series: ^3H-taurine uptake by Xenopus oocytes injected with TAUT1 cRNA. The class given is cell-based. On the set-up: expressed in transfected cells; host or cells: Xenopus oocytes injected with TAUT1 cRNA. The conditions noted are these: oocytes expressing TAUT1 vs noninjected controls (FIG. 2).
Series [3] has as its target T1, TAUT1. The conditions noted are these: reported value, source not given; cited from earlier work.
The target in a further series is PgP (Homo sapiens, UniProt P08183). Kind of series: Cellular transwell monolayer efflux assay, MDCK cells with TREx-PgP. As for the experimental part: A third type of efflux transporter assay is the cellular transwell monolayer efflux assay. In this assay, cells expressing efflux transporters, such as MDCK cells containing the TREx-PgP expression vector (Invitrogen Inc., Carlsbad, Calif.), are seeded and grown in transwell dishes on filter membranes made of substances such as polycarbonate. The cells form a polarized monolayer. The transwell dishes have apical and basolateral chambers that are separated by the filter membrane on which the polarized monolayer is situated. Assays are performed by placing a test compound in either the apical or basolateral chamber, followed by sampling the opposite chamber after a predetermined period of time such as 60-120 minutes and measuring the amount of the test compound. The test compound can be measured by methods such as radiolabel detection or LC-MS-MS analysis. Assays are performed in the presence and absence of an efflux transporter inhibitor or competitor. Efflux transporter inhibitors or competitors increase apical to basolateral transport and decrease basolateral to apical transport of compounds that are efflux transporter substrates. Apparent permeability (Papp) of test compounds is measured. […] Test compounds that generate ratios between 1.5 and 2.0 require additional testing to determine if they are efflux transporter substrates. An agent, conjugate, or conjugate moiety that is a TAUT1 substrate and also generates a ratio of greater than 2.0 can be modified.
MDCK cells transfected with the tetracycline-inducible TREx-PgP expression vector were seeded on polycarbonate filter membranes in transwell dishes and grown for 3-5 days, yielding a polarized monolayer with tight junctions between cells. […] The left set of bars depicts apical to basolateral transport, while the right set of bars depicts basolateral to apical transport.

Substrate in series [4]: NCCCC(=O)O
The series is described as follows: cells, lysate or membranes. The conditions noted are these: other: direct uptake into HEK-TREx-TAUT1 cells, +TET minus no TET; 15 min, room temperature.

Where [5] appears, read: 2.5 nM ^3H-vinblastine, in the presence of 250 μM verapamil vs absence (FIG. 6).

PgP, sequence (P08183 whole entry): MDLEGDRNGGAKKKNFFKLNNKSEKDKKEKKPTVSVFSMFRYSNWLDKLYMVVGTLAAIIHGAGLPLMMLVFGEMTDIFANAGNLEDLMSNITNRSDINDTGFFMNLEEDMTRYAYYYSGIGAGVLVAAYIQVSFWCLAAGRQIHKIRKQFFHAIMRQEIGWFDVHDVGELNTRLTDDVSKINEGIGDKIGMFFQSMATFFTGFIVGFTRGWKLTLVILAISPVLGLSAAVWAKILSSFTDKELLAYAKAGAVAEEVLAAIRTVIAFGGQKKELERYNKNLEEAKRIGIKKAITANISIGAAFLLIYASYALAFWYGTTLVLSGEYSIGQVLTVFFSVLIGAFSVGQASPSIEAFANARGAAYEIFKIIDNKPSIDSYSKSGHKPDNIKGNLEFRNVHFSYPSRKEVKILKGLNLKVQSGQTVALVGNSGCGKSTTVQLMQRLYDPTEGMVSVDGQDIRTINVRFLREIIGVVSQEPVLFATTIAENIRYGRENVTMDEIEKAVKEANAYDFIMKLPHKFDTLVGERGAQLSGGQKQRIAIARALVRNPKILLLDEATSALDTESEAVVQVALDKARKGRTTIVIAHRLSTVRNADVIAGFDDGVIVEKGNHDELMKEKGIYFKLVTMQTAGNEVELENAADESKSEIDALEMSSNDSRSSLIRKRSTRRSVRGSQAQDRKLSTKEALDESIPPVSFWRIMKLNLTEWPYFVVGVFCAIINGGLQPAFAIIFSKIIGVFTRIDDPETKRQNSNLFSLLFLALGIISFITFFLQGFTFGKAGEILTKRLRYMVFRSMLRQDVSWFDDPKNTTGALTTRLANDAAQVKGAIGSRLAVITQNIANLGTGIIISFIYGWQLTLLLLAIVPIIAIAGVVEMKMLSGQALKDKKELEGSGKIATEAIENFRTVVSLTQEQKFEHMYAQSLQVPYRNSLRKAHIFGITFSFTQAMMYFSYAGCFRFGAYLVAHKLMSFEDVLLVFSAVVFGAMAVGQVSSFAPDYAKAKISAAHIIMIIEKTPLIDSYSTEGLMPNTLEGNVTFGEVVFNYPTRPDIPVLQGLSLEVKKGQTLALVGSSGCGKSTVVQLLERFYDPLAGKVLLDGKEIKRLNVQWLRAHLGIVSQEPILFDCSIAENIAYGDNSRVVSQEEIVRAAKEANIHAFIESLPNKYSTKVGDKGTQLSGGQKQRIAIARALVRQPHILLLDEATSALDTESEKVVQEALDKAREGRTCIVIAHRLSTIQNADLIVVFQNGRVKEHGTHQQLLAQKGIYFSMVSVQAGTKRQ

On TAUT1 [1] (HEK-TREx-TAUT1 cells induced with tetracycline, ^3H-GABA radiolabel (taurine: ^3H-taurine per Example 9), 15 min, room temperature), `NCCS(=O)(=O)O` [Taurine] yielded a half-maximal inhibitory concentration (IC50) of 10 µM. At TAUT1 [1] (^3H-taurine as radiolabel in HEK-TREx-TAUT1 cells, in a very short time), the radiolabel uptake is recorded as > 25 % of the input cpm. Further, on TAUT1 [1] (^3H-taurine substrate, unlabeled taurine competitor, cells induced to express TAUT1 (FIG. 7)), the “uptake of labeled taurine with increasing unlabeled taurine” value is on record as “the uptake of labeled taurine decreased as the concentration of unlabeled taurine increased”. Further, at TAUT1 [2], the “^3H-taurine uptake” value is recorded as “higher levels of ^3H-taurine uptake than noninjected controls”. Moreover, the “Reported Affinity for TAUT1” value at TAUT1 [3] is reported as 0.1 mM.
With `CC[C@]1(O)C[C@@H]2CN(CCc3c([nH]c4ccccc34)[C@@](C(=O)OC)(c3cc4c(cc3OC)N(C)[C@H]3[C@@](O)(C(=O)OC)[C@H](OC(C)=O)[C@]5(CC)C=CCN6CC[C@]43[C@@H]65)C2)C1` [^3H-vinblastine], at PgP (setting [5]), the “Apical to basolateral transport” value was “strongly increased” and the “basolateral to apical transport” value is recorded as “strongly decreased”. On PgP (conclusion from transwell transport with and without verapamil), the PgP substrate status entry was “substrate of PgP”.

B1: hTAUT1 (Homo sapiens) (protein)
chain: MATKEKLQCLKDFHKDILKPSPGKSPGTRPEDEAEGKPPQREKWSSKIDFVLSVAGGFVGLGNVWRFPYLCYKNGGGAFLIPYFIFLFGSGLPVFFLEIIIGQYTSEGGITCWEKICPLFSGIGYASVVIVSLLNVYYIVILAWATYYLFQSFQKELPWAHCNHSWNTPHCMEDTMRKNKSVWITISSTNFTSPVIEFWERNVLSLSPGIDHPGSLKWDLALCLLLVWLVCFFCIWKGVRSTGKVVYFTATFPFAMLLVLLVRGLTLPGAGAGIKFYLYPDITRLEDPQVWIDAGTQIFFSYAICLGAMTSLGSYNKYKYNSYRDCMLLGCLNSGTSFVSGFAIFSILGFMAQEQGVDIADVAESGPGLAFIAYPKAVTMMPLPTFWSILFFIMLLLLGLDSQFVEVEGQITSLVDLYPSFLRKGYRREIFIAFVCSISYLLGLTMVTEGGMYVFQLFDYYAASGVCLLWVAFFECFVIAWIYGGDNLYDGIEDMIGYRPGPWMKYSWAVITPVLCVGCFIFSLVKYVPLTYNKTYVYPNWAIGLGWSLALSSMLCVPLVIVIRLCQTEGPFLVRVKYLLTPREPNRWAVEREGATPYNSRTVMNGALVKPTHIIVETMM
As for B1, the Michaelis constant (Km) in series [4] is 270 µM and 200 µM.
